Data on 16 compounds can be found in patent US11951108B2, “Combination therapy for treating cancer” (Epizyme, Inc., priority 2016, dated 2024).

Where two headings read alike, the source gives them in different places.

One data set concerns A2780. Put plainly: In vitro combination study, ovarian cancer cell line A2780.
Another data set relates to TOV112D. Put plainly: In vitro combination study, ovarian cancer cell line TOV112D. The following applies: 4+3 model.
In a further data set the test system is COV644*. The data set is described as follows: In vitro combination study, ovarian cancer cell line COV644. The following applies: COV644*; 7+3 model.
For another data set, the system named is RMUGS*. Put plainly: In vitro combination study, ovarian cancer cell line RMUGS. The following applies: 7+3 model.
Another data set concerns KURAMOCHI
Put plainly: In vitro combination study, ovarian cancer cell line KURAMOCHI
Particulars: KURAMOCHI; 4+3 model.

The next data set concerns OVISE. Put plainly: In vitro combination study, ovarian cancer cell line OVISE. The following applies: OVISE; 4+3 model.
In a further data set the test system is CAOV-3. The data set is described as follows: In vitro combination study, ovarian cancer cell line CAOV-3. Format: cell-based. The following applies: 4+3 model.
A further data set concerns SKOV3. The data set is described as follows: In vitro combination study, ovarian cancer cell line SKOV3. Particulars: 4+3 model.
For the next data set, the system named is SNU840. The data set is described as follows: In vitro combination study, ovarian cancer cell line SNU840. Particulars: SNU840; 4+3 model.
Another data set relates to CAMA-1. The data set is described as follows: In vitro combination study, breast cancer cell line CAMA-1. The class given is cell-based. The following applies: ER/PR +/−, HER2 +, 7 day pre-treatment + 6 day co-treatment.
For the next data set, the system named is HCC1419. The data set is described as follows: In vitro combination study, breast cancer cell line HCC1419. The following applies: ER/PR −/−, HER2 +, 7 day pre-treatment + 6 day co-treatment.
The subject of a further data set is ES-2. The data set is described as follows: In vitro combination study, ovarian cancer cell line ES-2. The following applies: 4+3 model.
In the next data set the test system is SUM52PE. Put plainly: In vitro combination study, breast cancer cell line SUM52PE. Particulars: ER/PR −/−, HER2 −, 7 day pre-treatment + 6 day co-treatment.
The test system of the next data set is JH)S-4. Put plainly: In vitro combination study, ovarian cancer cell line JH)S-4. The following applies: 4+3 model.
The test system of another data set is SUM159PT. The data set is described as follows: In vitro combination study, breast cancer cell line SUM159PT. Particulars: ER/PR −/−, HER2 −, 7 day pre-treatment + 6 day co-treatment.
A further data set concerns OVMANA. Put plainly: In vitro combination study, ovarian cancer cell line OVMANA. The following applies: OVMANA; 4+3 model.
The next data set has as its system OV-90. The data set is described as follows: In vitro combination study, ovarian cancer cell line OV-90. Particulars: OV-90; 4+3 model.
A further data set deals with OVSAHO. Put plainly: In vitro combination study, ovarian cancer cell line OVSAHO. Particulars: 4+3 model.
Another data set deals with COV362. Put plainly: In vitro combination study, ovarian cancer cell line COV362. Particulars: COV362; 4+3 model.
The test system of the next data set is TOV21G. The data set is described as follows: In vitro combination study, ovarian cancer cell line TOV21G. The class given is cell-based. Particulars: 4+3 model.
Another data set deals with BT474. The data set is described as follows: In vitro combination study, breast cancer cell line BT474. Particulars: ER/PR +/+, HER2 +, 7 day pre-treatment + 6 day co-treatment.
The test system of the next data set is DU4475. Put plainly: In vitro combination study, breast cancer cell line DU4475. Particulars: ER/PR −/−, HER2 −, 7 day pre-treatment + 6 day co-treatment.

With `CC1(C)CCC(CN2CCN(c3ccc(C(=O)NS(=O)(=O)c4ccc(NCC5CCOCC5)c([N+](=O)[O-])c4)c(Oc4cnc5[nH]ccc5c4)c3)CC2)=C(c2ccc(Cl)cc2)C1` [ABT199], the “Synergy or antagonism of second agent with tazemetostat (IC50 shift of second agent)” value in the data set with A2780 (A2780, 4+3 model) is given as “C (Synergy > 2× IC50 shift)”; in the data set on TOV112D, “C (Synergy > 2× IC50 shift)”.

As for `COc1cc2c(Oc3ccc4[nH]c(C)cc4c3F)ncnc2cc1OCCCN1CCCC1` [AZD2171], the “Synergy or antagonism of second agent with tazemetostat (IC50 shift of second agent)” value is listed as “C (Synergy > 2× IC50 shift)” in the data set on A2780 (A2780, 4+3 model); “C (Synergy > 2× IC50 shift)” with COV644*; “C (Synergy > 2× IC50 shift)” with RMUGS*; “B (Synergy > 4× IC50 shift)” with COV504 (COV504, 4+3 model); “C (Synergy > 2× IC50 shift)” in the data set on KURAMOCHI.

For the compound `Cc1nc(NC(=O)N2CCC[C@H]2C(N)=O)sc1-c1ccnc(C(C)(C)C(F)(F)F)c1` [BYL719], the “Synergy or antagonism of second agent with tazemetostat (IC50 shift of second agent)” value with A2780 (A2780, 4+3 model) is recorded as “B (Synergy > 4× IC50 shift)”; in the data set with OVISE, “C (Synergy > 2× IC50 shift)”; in the data set with CAOV-3, “C (Synergy > 2× IC50 shift)”; in the data set on SKOV3, “C (Synergy > 2× IC50 shift)”; with SNU840 it was “B (Synergy > 4× IC50 shift)”; in the data set with COV644* it was “C (Synergy > 2× IC50 shift)”. Besides, the “Synergy or antagonism of second agent with tazemetostat (IC50 shift of second agent)” value in the data set with COV504 (COV504, 4+3 model) is “B (Synergy > 4× IC50 shift)”; in the data set with TOV112D, “C (Synergy > 2× IC50 shift)”.

Consider `N.N.O=C([O-])C1(C(=O)[O-])CCC1.[Pt+2]` [Carboplatin], for which the “Synergy or antagonism of second agent with tazemetostat (IC50 shift of second agent)” value in the data set on A2780 (A2780, 4+3 model) is listed as “B (Synergy > 4× IC50 shift)”.

As for `CCc1cnn2c(NCc3ccc[n+]([O-])c3)cc(N3CCCC[C@H]3CCO)nc12` [Dinaciclib], in the data set on CAMA-1, the “Synergy or antagonism of second agent with tazemetostat (IC50 shift of second agent)” value is reported as “A (Antagonism)”.

Regarding `Nc1ccn([C@@H]2O[C@H](CO)[C@@H](O)C2(F)F)c(=O)n1` [Gemcitabine], the “Synergy or antagonism of second agent with tazemetostat (IC50 shift of second agent)” value in the data set on A2780 (A2780, 4+3 model) is “B (Synergy > 4× IC50 shift)”; in the data set with SKOV3 it was “C (Synergy > 2× IC50 shift)”; in the data set with RMUGS*, “B (Synergy > 4× IC50 shift)”; with COV504 (COV504, 4+3 model), “C (Synergy > 2× IC50 shift)”; with HCC1419, “C (Synergy > 2× IC50 shift)”.

With `Cc1ccc(NC(=O)c2ccc(CN3CCN(C)CC3)cc2)cc1Nc1nccc(-c2cccnc2)n1` [Imatinib], the “Synergy or antagonism of second agent with tazemetostat (IC50 shift of second agent)” value in the data set on ES-2 is recorded as “A (Antagonism)”.

Turning to `NC(=O)c1ccc(I)c([N+](=O)[O-])c1` [Iniparib (BSI 201), Iniparib], the “Synergy or antagonism of second agent with tazemetostat (IC50 shift of second agent)” value in the data set with CAMA-1, with HCC1419 and with SUM52PE was “C (Synergy > 2× IC50 shift)” in each case.

For the compound `C=CCn1c(=O)c2cnc(Nc3ccc(N4CCN(C)CC4)cc3)nc2n1-c1cccc(C(C)(C)O)n1` [MK1775], the “Synergy or antagonism of second agent with tazemetostat (IC50 shift of second agent)” value with A2780 (A2780, 4+3 model) is reported as “B (Synergy > 4× IC50 shift)”; with CAOV-3, “C (Synergy > 2× IC50 shift)”; in the data set with JH)S-4, “C (Synergy > 2× IC50 shift)”; in the data set on SKOV3 it was “C (Synergy > 2× IC50 shift)”; in the data set on COV644* it was “B (Synergy > 4× IC50 shift)”; in the data set on RMUGS*, “B (Synergy > 4× IC50 shift)”. Further, the “Synergy or antagonism of second agent with tazemetostat (IC50 shift of second agent)” value in the data set on COV504 (COV504, 4+3 model) is given as “C (Synergy > 2× IC50 shift)”; in the data set with KURAMOCHI, “C (Synergy > 2× IC50 shift)”; in the data set with TOV112D, “C (Synergy > 2× IC50 shift)”.

For `O=C(c1cc(Cc2n[nH]c(=O)c3ccccc23)ccc1F)N1CCN(C(=O)C2CC2)CC1` [Olaparib], the “Synergy or antagonism of second agent with tazemetostat (IC50 shift of second agent)” value in the data set on A2780 (A2780, 4+3 model) was “B (Synergy > 4× IC50 shift)”; in the data set with SUM159PT it was “C (Synergy > 2× IC50 shift)”.

For `Cc1[nH]c2ccccc2c1CCNCc1ccc(/C=C/C(=O)NO)cc1` [Panobinostat], the “Synergy or antagonism of second agent with tazemetostat (IC50 shift of second agent)” value in the data set with A2780 (A2780, 4+3 model) is recorded as “B (Synergy > 4× IC50 shift)”; with OVISE it was “C (Synergy > 2× IC50 shift)”; in the data set on CAOV-3, “C (Synergy > 2× IC50 shift)”; in the data set with OVMANA it was “C (Synergy > 2× IC50 shift)”; in the data set on OV-90 it was “C (Synergy > 2× IC50 shift)”; in the data set on JH)S-4, “C (Synergy > 2× IC50 shift)”. The “Synergy or antagonism of second agent with tazemetostat (IC50 shift of second agent)” value in the data set on SKOV3 was “B (Synergy > 4× IC50 shift)”; in the data set with OVSAHO it was “C (Synergy > 2× IC50 shift)”; in the data set on SNU840, “C (Synergy > 2× IC50 shift)”; in the data set on COV644* it was “C (Synergy > 2× IC50 shift)”; in the data set on COV362 it was “C (Synergy > 2× IC50 shift)”; in the data set on COV504 (COV504, 4+3 model) it was “B (Synergy > 4× IC50 shift)”. The “Synergy or antagonism of second agent with tazemetostat (IC50 shift of second agent)” value with KURAMOCHI, with TOV112D and in the data set on TOV21G was “C (Synergy > 2× IC50 shift)” in each case.

With `CS(=O)(=O)N1CCN(Cc2cc3nc(-c4cccc5[nH]ncc45)nc(N4CCOCC4)c3s2)CC1` [Pictilisib], the “Synergy or antagonism of second agent with tazemetostat (IC50 shift of second agent)” value is “C (Synergy > 2× IC50 shift)” in the data set on A2780 (A2780, 4+3 model); “C (Synergy > 2× IC50 shift)” in the data set with CAOV-3; “C (Synergy > 2× IC50 shift)” with OVMANA; “C (Synergy > 2× IC50 shift)” in the data set with SNU840; “C (Synergy > 2× IC50 shift)” in the data set on COV644*.

Turning to `C/C=C1\NC(=O)[C@H]2CSSCC/C=C/[C@H](CC(=O)N[C@H](C(C)C)C(=O)N2)OC(=O)[C@H](C(C)C)NC1=O` [Romidepsin], the entries for the “Synergy or antagonism of second agent with tazemetostat (IC50 shift of second agent)” value in the data set with COV362 and with COV504 were “C (Synergy > 2× IC50 shift)” and “C (key: B: Synergy > 4× IC50 shift; Synergy > 2× IC50 shift; No Effect; Antagonism; X: Not Tested)”, respectively.

For `Cc1cc(Nc2ccc(NC(=O)c3ccc(Nc4ccnc5ccccc45)cc3)cc2)nc(N)n1` [SGI1027], the “Synergy or antagonism of second agent with tazemetostat (IC50 shift of second agent)” value in the data set with BT474 is “B (Synergy > 4× IC50 shift)”; in the data set on CAMA-1 it was “C (Synergy > 2× IC50 shift)”; in the data set on DU4475, “A (Antagonism)”.

As for `CCCS(=O)(=O)Nc1ccc(F)c(C(=O)c2c[nH]c3ncc(-c4ccc(Cl)cc4)cc23)c1F` [Vemurafenib], the “Synergy or antagonism of second agent with tazemetostat (IC50 shift of second agent)” value in the data set with ES-2 was “C (Synergy > 2× IC50 shift)”.

In the case of AZD5363, the “Synergy or antagonism of second agent with tazemetostat (IC50 shift of second agent)” value in the data set with A2780 is “B (key: B: Synergy > 4× IC50 shift; Synergy > 2× IC50 shift; No Effect; Antagonism; X: Not Tested)”.
